# Test results from ChEMBL document CHEMBL3044736, “Synthesis, characterization, solvatochromic properties, and antimicrobial evaluation of 5-acetyl-2-thioxo-dihydro-pyrimidine-4,6-dione-based chalcones” (2013).
# Experiments:
# Format in all cases: functional
# Staphylococcus aureus [1] = assay: Antimicrobial activity against Staphylococcus aureus MTCC 96 assessed as diameter of growth inhibition zone at 250 ug/ml after 18-24 hr by agar cup diffusion method; conditions: read-out: DIZ
# Penicillium [2] = assay: Antimicrobial activity against Penicillium wild strain assessed as diameter of growth inhibition zone at 50 ug/ml after 48-96 hr by agar cup diffusion method; conditions: read-out: DIZ
# Penicillium [3] = assay: Antimicrobial activity against Penicillium wild strain assessed as diameter of growth inhibition zone at 100 ug/ml after 48-96 hr by agar cup diffusion method; conditions: read-out: DIZ
# Pseudomonas aeruginosa [4] = assay: Antimicrobial activity against Pseudomonas aeruginosa MTCC 1688 assessed as diameter of growth inhibition zone at 250 ug/ml after 18-24 hr by agar cup diffusion method; conditions: read-out: DIZ
# Klebsiella pneumoniae [5] = assay: Antimicrobial activity against Klebsiella pneumoniae MTCC 109 assessed as diameter of growth inhibition zone at 250 ug/ml after 18-24 hr by agar cup diffusion method; conditions: read-out: DIZ
# Candida albicans [6] = assay: Antimicrobial activity against Candida albicans MTCC 227 assessed as diameter of growth inhibition zone at 25 ug/ml after 48-96 hr by agar cup diffusion method; conditions: read-out: DIZ
# Pseudomonas aeruginosa [7] = assay: Antimicrobial activity against Pseudomonas aeruginosa MTCC 1688 by agar cup diffusion method
# Staphylococcus aureus [8] = assay: Antimicrobial activity against Staphylococcus aureus MTCC 96 assessed as diameter of growth inhibition zone at 50 ug/ml after 18-24 hr by agar cup diffusion method; conditions: read-out: DIZ
# Trichophyton rubrum [9] = assay: Antimicrobial activity against Trichophyton rubrum MTCC 296 assessed as diameter of growth inhibition zone at 250 ug/ml after 48-96 hr by agar cup diffusion method; conditions: read-out: DIZ
# Pseudomonas aeruginosa [10] = assay: Antimicrobial activity against Pseudomonas aeruginosa MTCC 1688 assessed as diameter of growth inhibition zone at 100 ug/ml after 18-24 hr by agar cup diffusion method; conditions: read-out: DIZ
# Klebsiella pneumoniae [11] = assay: Antimicrobial activity against Klebsiella pneumoniae MTCC 109 assessed as diameter of growth inhibition zone at 50 ug/ml after 18-24 hr by agar cup diffusion method; conditions: read-out: DIZ
# Escherichia coli [12] = assay: Antimicrobial activity against Escherichia coli MTCC 443 assessed as diameter of growth inhibition zone at 100 ug/ml after 18-24 hr by agar cup diffusion method; conditions: read-out: DIZ
# Klebsiella pneumoniae [13] = assay: Antimicrobial activity against Klebsiella pneumoniae MTCC 109 by agar cup diffusion method
# Aspergillus clavatus [14] = assay: Antimicrobial activity against Aspergillus clavatus MTCC 1323 assessed as diameter of growth inhibition zone at 50 ug/ml after 48-96 hr by agar cup diffusion method; conditions: read-out: DIZ
# Trichophyton rubrum [15] = assay: Antimicrobial activity against Trichophyton rubrum MTCC 296 assessed as diameter of growth inhibition zone at 100 ug/ml after 48-96 hr by agar cup diffusion method; conditions: read-out: DIZ
# Escherichia coli [16] = assay: Antimicrobial activity against Escherichia coli MTCC 443 by agar cup diffusion method
# Escherichia coli [17] = assay: Antimicrobial activity against Escherichia coli MTCC 443 assessed as diameter of growth inhibition zone at 25 ug/ml after 18-24 hr by agar cup diffusion method; conditions: read-out: DIZ
# Penicillium [18] = assay: Antimicrobial activity against Penicillium wild strain assessed as diameter of growth inhibition zone at 250 ug/ml after 48-96 hr by agar cup diffusion method; conditions: read-out: DIZ
# Streptococcus pyogenes [19] = assay: Antimicrobial activity against Streptococcus pyogenes MTCC 442 assessed as diameter of growth inhibition zone at 25 ug/ml after 18-24 hr by agar cup diffusion method; conditions: read-out: DIZ
# Aspergillus clavatus [20] = assay: Antimicrobial activity against Aspergillus clavatus MTCC 1323 by agar cup diffusion method
# Staphylococcus aureus [21] = assay: Antimicrobial activity against Staphylococcus aureus MTCC 96 assessed as diameter of growth inhibition zone at 100 ug/ml after 18-24 hr by agar cup diffusion method; conditions: read-out: DIZ
# Pseudomonas aeruginosa [22] = assay: Antimicrobial activity against Pseudomonas aeruginosa MTCC 1688 assessed as diameter of growth inhibition zone at 25 ug/ml after 18-24 hr by agar cup diffusion method; conditions: read-out: DIZ
# Escherichia coli [23] = assay: Antimicrobial activity against Escherichia coli MTCC 443 assessed as diameter of growth inhibition zone at 50 ug/ml after 18-24 hr by agar cup diffusion method; conditions: read-out: DIZ
# Candida albicans [24] = assay: Antimicrobial activity against Candida albicans MTCC 227 assessed as diameter of growth inhibition zone at 250 ug/ml after 48-96 hr by agar cup diffusion method; conditions: read-out: DIZ
# Streptococcus pyogenes [25] = assay: Antimicrobial activity against Streptococcus pyogenes MTCC 442 assessed as diameter of growth inhibition zone at 50 ug/ml after 18-24 hr by agar cup diffusion method; conditions: read-out: DIZ
# Aspergillus clavatus [26] = assay: Antimicrobial activity against Aspergillus clavatus MTCC 1323 assessed as diameter of growth inhibition zone at 25 ug/ml after 48-96 hr by agar cup diffusion method; conditions: read-out: DIZ
# Staphylococcus aureus [27] = assay: Antimicrobial activity against Staphylococcus aureus MTCC 96 assessed as diameter of growth inhibition zone at 25 ug/ml after 18-24 hr by agar cup diffusion method; conditions: read-out: DIZ
# Streptococcus pyogenes [28] = assay: Antimicrobial activity against Streptococcus pyogenes MTCC 442 assessed as diameter of growth inhibition zone at 250 ug/ml after 18-24 hr by agar cup diffusion method; conditions: read-out: DIZ
# Klebsiella pneumoniae [29] = assay: Antimicrobial activity against Klebsiella pneumoniae MTCC 109 assessed as diameter of growth inhibition zone at 100 ug/ml after 18-24 hr by agar cup diffusion method; conditions: read-out: DIZ
# Pseudomonas aeruginosa [30] = assay: Antimicrobial activity against Pseudomonas aeruginosa MTCC 1688 assessed as diameter of growth inhibition zone at 50 ug/ml after 18-24 hr by agar cup diffusion method; conditions: read-out: DIZ
# Streptococcus pyogenes [31] = assay: Antimicrobial activity against Streptococcus pyogenes MTCC 442 by agar cup diffusion method
# Candida albicans [32] = assay: Antimicrobial activity against Candida albicans MTCC 227 by agar cup diffusion method
# Escherichia coli [33] = assay: Antimicrobial activity against Escherichia coli MTCC 443 assessed as diameter of growth inhibition zone at 250 ug/ml after 18-24 hr by agar cup diffusion method; conditions: read-out: DIZ
# Trichophyton rubrum [34] = assay: Antimicrobial activity against Trichophyton rubrum MTCC 296 by agar cup diffusion method
# Klebsiella pneumoniae [35] = assay: Antimicrobial activity against Klebsiella pneumoniae MTCC 109 assessed as diameter of growth inhibition zone at 25 ug/ml after 18-24 hr by agar cup diffusion method; conditions: read-out: DIZ
# Streptococcus pyogenes [36] = assay: Antimicrobial activity against Streptococcus pyogenes MTCC 442 assessed as diameter of growth inhibition zone at 100 ug/ml after 18-24 hr by agar cup diffusion method; conditions: read-out: DIZ
# Trichophyton rubrum [37] = assay: Antimicrobial activity against Trichophyton rubrum MTCC 296 assessed as diameter of growth inhibition zone at 50 ug/ml after 48-96 hr by agar cup diffusion method; conditions: read-out: DIZ
# Candida albicans [38] = assay: Antimicrobial activity against Candida albicans MTCC 227 assessed as diameter of growth inhibition zone at 100 ug/ml after 48-96 hr by agar cup diffusion method; conditions: read-out: DIZ
# Penicillium [39] = assay: Antimicrobial activity against Penicillium wild strain assessed as diameter of growth inhibition zone at 25 ug/ml after 48-96 hr by agar cup diffusion method; conditions: read-out: DIZ
# Penicillium [40] = assay: Antimicrobial activity against Penicillium wild strain by agar cup diffusion method
# Trichophyton rubrum [41] = assay: Antimicrobial activity against Trichophyton rubrum MTCC 296 assessed as diameter of growth inhibition zone at 25 ug/ml after 48-96 hr by agar cup diffusion method; conditions: read-out: DIZ
# Candida albicans [42] = assay: Antimicrobial activity against Candida albicans MTCC 227 assessed as diameter of growth inhibition zone at 50 ug/ml after 48-96 hr by agar cup diffusion method; conditions: read-out: DIZ
# Aspergillus clavatus [43] = assay: Antimicrobial activity against Aspergillus clavatus MTCC 1323 assessed as diameter of growth inhibition zone at 100 ug/ml after 48-96 hr by agar cup diffusion method; conditions: read-out: DIZ
# Aspergillus clavatus [44] = assay: Antimicrobial activity against Aspergillus clavatus MTCC 1323 assessed as diameter of growth inhibition zone at 250 ug/ml after 48-96 hr by agar cup diffusion method; conditions: read-out: DIZ
# Staphylococcus aureus [45] = assay: Antimicrobial activity against Staphylococcus aureus MTCC 96 by agar cup diffusion method
smiles,measurement,setting,value
Cc1ccc(/C=C/C(=O)C2C(=O)NC(=S)NC2=O)cc1,zone of inhibition at 250 µg/mL,Staphylococcus aureus [1],17 mm
same,zone of inhibition at 50 µg/mL,Penicillium [2],18 mm
same,zone of inhibition at 100 µg/mL,Penicillium [3],19 mm
same,zone of inhibition at 250 µg/mL,Pseudomonas aeruginosa [4],17 mm
same,zone of inhibition at 250 µg/mL,Klebsiella pneumoniae [5],17 mm
same,zone of inhibition at 25 µg/mL,Candida albicans [6],19 mm
same,MBC,Pseudomonas aeruginosa [7],500 µg/mL
same,MIC,Pseudomonas aeruginosa [7],250 µg/mL
same,zone of inhibition at 50 µg/mL,Staphylococcus aureus [8],12 mm
same,zone of inhibition at 250 µg/mL,Trichophyton rubrum [9],25 mm
same,zone of inhibition at 100 µg/mL,Pseudomonas aeruginosa [10],16 mm
same,zone of inhibition at 50 µg/mL,Klebsiella pneumoniae [11],14 mm
same,zone of inhibition at 100 µg/mL,Escherichia coli [12],18 mm
same,MBC,Klebsiella pneumoniae [13],100 µg/mL
same,MIC,Klebsiella pneumoniae [13],100 µg/mL
same,zone of inhibition at 50 µg/mL,Aspergillus clavatus [14],22 mm
same,zone of inhibition at 100 µg/mL,Trichophyton rubrum [15],22 mm
same,MBC,Escherichia coli [16],200 µg/mL
same,MIC,Escherichia coli [16],100 µg/mL
same,zone of inhibition at 25 µg/mL,Escherichia coli [17],15 mm
same,zone of inhibition at 250 µg/mL,Penicillium [18],22 mm
same,zone of inhibition at 25 µg/mL,Streptococcus pyogenes [19],15 mm
same,MFC,Aspergillus clavatus [20],> 1000 µg/mL
same,MIC,Aspergillus clavatus [20],> 1000 µg/mL
same,zone of inhibition at 100 µg/mL,Staphylococcus aureus [21],16 mm
same,zone of inhibition at 25 µg/mL,Pseudomonas aeruginosa [22],10 mm
same,zone of inhibition at 50 µg/mL,Escherichia coli [23],15 mm
same,zone of inhibition at 250 µg/mL,Candida albicans [24],24 mm
same,zone of inhibition at 50 µg/mL,Streptococcus pyogenes [25],15 mm
same,zone of inhibition at 25 µg/mL,Aspergillus clavatus [26],21 mm
same,zone of inhibition at 25 µg/mL,Staphylococcus aureus [27],10 mm
same,zone of inhibition at 250 µg/mL,Streptococcus pyogenes [28],19 mm
same,zone of inhibition at 100 µg/mL,Klebsiella pneumoniae [29],15 mm
same,zone of inhibition at 50 µg/mL,Pseudomonas aeruginosa [30],12 mm
same,MBC,Streptococcus pyogenes [31],200 µg/mL
same,MIC,Streptococcus pyogenes [31],250 µg/mL
same,MFC,Candida albicans [32],> 1000 µg/mL
same,MIC,Candida albicans [32],1000 µg/mL
same,zone of inhibition at 250 µg/mL,Escherichia coli [33],19 mm
same,MFC,Trichophyton rubrum [34],> 1000 µg/mL
same,MIC,Trichophyton rubrum [34],> 1000 µg/mL
same,zone of inhibition at 25 µg/mL,Klebsiella pneumoniae [35],12 mm
same,zone of inhibition at 100 µg/mL,Streptococcus pyogenes [36],18 mm
same,zone of inhibition at 50 µg/mL,Trichophyton rubrum [37],20 mm
same,zone of inhibition at 100 µg/mL,Candida albicans [38],21 mm
same,zone of inhibition at 25 µg/mL,Penicillium [39],18 mm
same,MFC,Penicillium [40],> 1000 µg/mL
same,MIC,Penicillium [40],> 1000 µg/mL
same,zone of inhibition at 25 µg/mL,Trichophyton rubrum [41],19 mm
same,zone of inhibition at 50 µg/mL,Candida albicans [42],20 mm
same,zone of inhibition at 100 µg/mL,Aspergillus clavatus [43],22 mm
same,zone of inhibition at 250 µg/mL,Aspergillus clavatus [44],25 mm
same,MBC,Staphylococcus aureus [45],125 µg/mL
same,MIC,Staphylococcus aureus [45],125 µg/mL
